Molecules are shown by their SMILES.

This test has as its target core histone octamer (Homo sapiens, UniProt P0C0S8+P62805+P62807+P68431). Nature of the test: intrinsic histone fluorescence quenching titration. It is filed as binding.

Regarding `CC[n+]1c(-c2ccccc2)c2cc(N)ccc2c2ccc(N)cc21` [EB, ethidium bromide], binding was characterised by a dissociation constant (Kd) of 7.7 ± 0.1 µM.

The term Kd denotes the concentration at which binding is half-saturated. A low value points to higher affinity.

These data come from publication PMC3958746 (FEBS Open Bio, 2014).
